According to the supplement of paper PMC10307832:

These cell lines were tested with O=C(/C=C/c1ccccc1)NC(NC(=S)Nc1cccc2cccnc12)C(Cl)(Cl)Cl [Salubrinal] + CS(=O)(=O)N1CCN(Cc2cc3nc(-c4cccc5[nH]ncc45)nc(N4CCOCC4)c3s2)CC1 [Pictilisib] (partner 1 µM) (assay: relative viability (nuclei count vs DMSO), 5 days (fraction); higher = more cells survive). Details: first compound 8 µM.
Method in brief: (§1)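 Dosing by pin tool came one day after lung cancer cell lines were seeded in 1536-well plates, using either one drug or a fixed anchor-drug dose plus five library-drug doses (not always all listed) in √10 steps. After 5 days, nuclei were counted on 4× images. Relative viability is treated-well nuclei count divided by vehicle-well nuclei count, and values are medians of duplicate plates.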

Cell Line	relative viability
LK-2	0.575
NCI-H2087	0.963
NCI-H358	0.373
NCI-H2170	0.271
H3255	0.487
COR-L23	0.432
COR-L 105	0.421
IA-LM	0.188
LOU-NH91	0.53
ChaGo-K-1	0.827
A549	0.35
SK-MES-1	0.335
NCI-H2009	0.749
NCI-H661	0.569
SK-LU-1	0.519
NCI-H1299	0.66
CAL-12T	0.528
NCI-H2228	0.321
NCI-H2023	0.208
NCI-H1563	0.591

Each cell line was assayed with O=C(/C=C/c1ccccc1)NC(NC(=S)Nc1cccc2cccnc12)C(Cl)(Cl)Cl [Salubrinal] + NC(=O)Nc1cc(-c2cccc(F)c2)sc1C(=O)N[C@H]1CCCNC1 [AZD7762] (partner 0.2 µM) in the same assay as above. Details: first compound 0.08 µM.
Method in brief: as §1

Cell Line	relative viability
NCI-H522	0.99
NCI-H2342	0.445
NCI-H727	0.574
NCI-H1703	0.124
NCI-H1993	0.909
NCI-H838	0.961
LCLC-103H	0.856
NCI-H2126	1.05
EMC-BAC-2	1.1
NCI-H2085	1.14
HCC-366	0.254
NCI-H1666	0.793
NCI-H596	1.05
LK-2	0.39
NCI-H2087	1.44
NCI-H358	0.583
NCI-H2170	0.953
H3255	0.967
LOU-NH91	0.813
ChaGo-K-1	0.978
SW 900	0.612
CAL-12T	0.625
NCI-H1648	0.733

Same assay, conditions: first compound 0.253 µM

Cell Line	relative viability
NCI-H522	0.808
NCI-H2342	0.503
NCI-H727	0.648
NCI-H1703	0.11
NCI-H1993	0.744
NCI-H838	0.957
LCLC-103H	0.699
NCI-H2126	0.936
EMC-BAC-2	1.06
NCI-H2085	0.905
NCI-H1666	0.863
NCI-H596	1
LK-2	0.486
NCI-H2087	0.751
NCI-H358	0.461
NCI-H2170	0.942
H3255	0.786
LOU-NH91	0.785
ChaGo-K-1	0.694
SW 900	0.579
CAL-12T	0.657
NCI-H1648	0.62

Same assay, conditions: first compound 0.8 µM

Cell Line	relative viability
NCI-H522	0.957
NCI-H2342	0.552
NCI-H727	0.649
NCI-H1703	0.139
NCI-H1993	0.871
NCI-H838	1.06
LCLC-103H	0.806
NCI-H2126	1.06
EMC-BAC-2	1.31
NCI-H2085	0.944
HCC-366	0.315
NCI-H1666	0.831
NCI-H596	1.07
LK-2	0.489
NCI-H2087	1.44
NCI-H358	0.538
NCI-H2170	0.995
H3255	1.03
LOU-NH91	0.83
ChaGo-K-1	1
SW 900	0.687
CAL-12T	0.741
NCI-H1648	0.705

Same assay, conditions: first compound 2.53 µM

Cell Line	relative viability
NCI-H522	0.808
NCI-H2342	0.517
NCI-H727	0.583
NCI-H1703	0.123
NCI-H838	0.962
LCLC-103H	0.815
NCI-H2126	0.992
EMC-BAC-2	1.16
NCI-H2085	0.946
HCC-366	0.272
NCI-H1666	0.704
NCI-H596	1.16
LK-2	0.441
NCI-H2087	1.31
NCI-H358	0.561
NCI-H2170	0.792
H3255	0.87
LOU-NH91	0.745
ChaGo-K-1	0.886
SW 900	0.585
CAL-12T	0.577
NCI-H1648	0.654

Same assay, conditions: first compound 8 µM

Cell Line	relative viability
NCI-H522	0.908
NCI-H2342	0.552
NCI-H727	0.584
NCI-H1703	0.122
NCI-H1993	0.612
NCI-H838	0.951
LCLC-103H	0.701
NCI-H2126	0.909
EMC-BAC-2	1.13
NCI-H2085	0.932
HCC-366	0.146
NCI-H1666	0.926
NCI-H596	0.865
LK-2	0.358
NCI-H2087	1.29
NCI-H358	0.459
NCI-H2170	0.878
H3255	0.859
LOU-NH91	0.706
ChaGo-K-1	0.707
SW 900	0.421
CAL-12T	0.619
NCI-H1648	0.575

What follows are cell lines tested with O=C(/C=C/c1ccccc1)NC(NC(=S)Nc1cccc2cccnc12)C(Cl)(Cl)Cl [Salubrinal] + Nc1ncn([C@H]2C[C@H](O)[C@@H](CO)O2)c(=O)n1 [Decitabine] (partner 2 µM) in the same assay as above. Details: first compound 0.08 µM.
Method in brief: as §1

Cell Line	relative viability
NCI-H522	0.711
NCI-H2342	0.797
NCI-H727	0.802
NCI-H1650	0.522
NCI-H1993	0.567
SW 1573	0.697
NCI-H838	0.493
LCLC-103H	0.772
NCI-H520	0.551
NCI-H2126	0.605
EMC-BAC-2	0.992
NCI-H2085	0.521
HCC-366	0.371
NCI-H1666	0.741
NCI-H596	1.1
LK-2	0.269
NCI-H2087	0.448
NCI-H358	0.24
NCI-H2170	0.483
H3255	0.703
COR-L23	0.408
COR-L 105	0.807
LOU-NH91	0.837
ChaGo-K-1	0.574
SK-MES-1	0.405
SW 900	0.483
NCI-H2009	0.414
NCI-H661	0.602
